Results as given in US20200405868A1, “GEL-FORMING POLYPEPTIDES” (priority 2018, published 2020).
“Also recorded” adds a separate entry of the source. One block for each substance: values may come before it. The star is where a group is joined. Palmitoyl = CCCCCCCCCCCCCCCC(=O)*

Assay: Compound gel-forming ability in water (visual inspection, tube tapping assay, tilted tube assay);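 further: peptides mixed with de-ionized water at about 22-25 °C, judged after 20 min by eye plus tube tapping (10 taps, moves counted) and 90° tilt mobility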
Format: physicochemical
Settings: for gel formation at 6% w/w: 6% w/w in water; for gel formation at 11% w/w: 11% w/w in water; for gel formation in aqueous solution, 11% / gel formation in aqueous solution, 20% / gel formation in aqueous solution, 6%: Table 3; for gel formation in aqueous solution, 11% / propensity to form gels, chimeric or mutated polypeptides, 11% / propensity to form gels, wild-type counterparts, 11%: 11% w/w; for Physical property at 11% w/w: 11% w/w in aqueous solution, room temperature; for gel formation in aqueous solution, 20% / propensity to form gels, chimeric or mutated polypeptides, 20%: 20% w/w
Protocol: Determination of Compound Gel-forming Ability in Water: To determine the solubility of polypeptides at room temperature, 1, 2, 3, 4, 5, 20, or 100 mg of a selected peptide is weighed and deposited into a clear plastic or glass vial and an aliquot of de-ionized water was then added to the vial. The procedure takes place in a room which is maintained at approximately 22-25° C. […] Insoluble peptides sample retained the particles or paste-like characteristics after 20 min of reaction. In addition to visual inspection, we performed a tube tapping assay and a tilted tube assay to differentiate the gelling status of peptide solutions.
To determine the solubility of polypeptides at room temperature, 1, 2, 3, 4, 5, 20, or 100 mg of a selected peptide is weighed and deposited into a clear plastic vial and an aliquot of de-ionized water was then added to the vial. The procedure takes place in a room which is maintained at approximately 22-25° C. Polypeptide sample which is considered soluble dissolves instantly in water and stays as a clear solution without obvious macroscopic change in viscosity at 20 min after mixing with water. […] If macroscopic particles of peptides remain in the solution at 20 min after mixing with water, the peptide is considered insoluble or precipitated at the given concentration. In this case, the quality of peptides is further judged by two other criteria: (1) mobility following a tapping of the tube (tube tapping assay) and (2) mobility flowing tilting the tube by 900 (tilted tube assay). In the first assay, the tube is tapped with the finger for 10 times, and the number of times that the body of the solution changes position is recorded. An aqueous solution such as water will have a score of 9 or 10 in this assay; meaning that the body of the liquid moves every time when one taps the tube. […] Those with moderate viscosity form liquid gel that changes the conformation slowly when the container tube is tapped with a finger or tilted. […] If macroscopic change in the position of the body of gel was observed 5-9 time out of 10 separate tapping tests, the gel is considered a liquid gel. The high viscosity of a liquid gel is further confirmed using the tilted tube assay. […] If the liquid or gel body takes more than 15 seconds to flow to the bottom of the tilted tube, the resulting aqueous mass is considered a liquid gel.
To allow systematic analysis of the gel-forming ability, the assay was first conducted at a peptide concentration of 11% w/w in aqueous solution. The peptides analyzed included functional regulators of cell surface receptors, enzymes, complement factors, antimicrobial peptides, immunomodulators, therapeutic peptides, cell-penetrating peptide, antigens, matrikines, and analogs of CGRP, adrenomedullin and adenomedullin 2 (or intermedin).

Substance: Pal-HSY-(D-Met)-FHLMD-NH2 [SEQ ID NO:211]
gel formation at 6% w/w: semisolid or liquid gel
gel formation at 11% w/w: semisolid gel
gel formation in aqueous solution, 11%: SS (SS for semisolid gel)

Substance: Pal-VQKLVDPSSPHSY-NH2 (Palmitoyl-VQKLVDPSSPHSY-NH2; SMILES CCCCCCCCCCCCCCCC(=O)N[C@H](C(=O)N[C@@H](CCC(N)=O)C(=O)N[C@@H](CCCCN)C(=O)N[C@@H](CC(C)C)C(=O)N[C@H](C(=O)N[C@@H](CC(=O)O)C(=O)N1CCC[C@H]1C(=O)N[C@@H](CO)C(=O)N[C@@H](CO)C(=O)N1CCC[C@H]1C(=O)N[C@@H](Cc1c[nH]cn1)C(=O)N[C@@H](CO)C(=O)N[C@@H](Cc1ccc(O)cc1)C(N)=O)C(C)C)C(C)C) [SEQ ID NO:112]
Physical property at 11% w/w (Table 2): SS (SS for semisolid gel)

gel formation in aqueous solution, 11%: SS (SS for semisolid gel)
gel formation in aqueous solution, 20%: SS (SS for semisolid gel)
Substance: Pal-HSYH-(D-Phe)-RWGKPV-NH2 [SEQ ID NO:273]
propensity to form gels, chimeric or mutated polypeptides, 11% (Table 5): SS (An ability to form semisolid gel is represented by an SS)
propensity to form gels, chimeric or mutated polypeptides, 20% (Table 5): SS (An ability to form semisolid gel is represented by an SS)

Substance: RPKPQQFFGLM-NH2 [SEQ ID NO:23, reference compound]
gel formation at 11% w/w: semisolid gel
Physical property at 11% w/w (Table 1): AS/IS
gel formation in aqueous solution, 11%: AS/IS (AS/IS for aqueous solution or insoluble)
propensity to form gels, wild-type counterparts, 11% (Table 5): AS/IS

Substance: Pal-KVQNLSAPVDPSSPHSY-NH2 [SEQ ID NO:104]
Physical property at 11% w/w (Table 2): AS/IS (AS/IS for aqueous solution or insoluble)

Substance: Pal-VGSNTY-NH2 [SEQ ID NO:133]
Physical property at 11% w/w (Table 2): AS/IS (AS/IS for aqueous solution or insoluble)

Substance: YNWNSFGLRF-NH2 [SEQ ID NO:6, reference compound]
gel formation at 6% w/w: semisolid gel
gel formation at 11% w/w: form self-assembling gels; also recorded: semisolid gel
Physical property at 11% w/w (Table 1): SS (SS for semisolid gel)
gel formation in aqueous solution, 6% (6% w/w): SS (SS for semisolid gel)
gel formation in aqueous solution, 11%: SS (SS for semisolid gel)
propensity to form gels, wild-type counterparts, 6% (Table 5, 6% w/w): SS (An ability to form semisolid gel is represented by an SS)
propensity to form gels, wild-type counterparts, 11% (Table 5): SS (An ability to form semisolid gel is represented by an SS)

Physical property at 11% w/w (Table 2): SS (SS for semisolid gel)
Substance: Pal-KVQKLAHQIYQFTD(Aib)DSAPVDPSSPHSY-NH2 [SEQ ID NO:124]

gel formation at 6% w/w: liquid gel
gel formation at 11% w/w: semisolid gel
gel formation in aqueous solution, 11%: SS (SS for semisolid gel)
Substance: Pal-KVQKLSAPVDPSSPHSY-miniPEG-CSNLSTCVLGKLSQELHKLQTYPRTNTGSGTP-NH2 [SEQ ID NO:217]
propensity to form gels, chimeric or mutated polypeptides, 11% (Table 5): SS (An ability to form semisolid gel is represented by an SS)

Substance: IEGPTLRQWLAARA [SEQ ID NO:9, reference compound]
Physical property at 11% w/w (Table 1): SS (SS for semisolid gel)

gel formation at 6% w/w: liquid gel
gel formation at 11% w/w: semisolid gel
gel formation in aqueous solution, 11%: SS (SS for semisolid gel)
Substance: Pal-KVQKLSAPVDPSSPHSY-miniPEG-CYIQNCPLG-NH2 [SEQ ID NO:205]
propensity to form gels, chimeric or mutated polypeptides, 11% (Table 5): SS (An ability to form semisolid gel is represented by an SS)

gel formation in aqueous solution, 20%: SS (SS for semisolid gel)
Substance: Pal-HSYRPKPQQFF-Sar-L-Met-(02)-NH2 [SEQ ID NO:254]
propensity to form gels, chimeric or mutated polypeptides, 20% (Table 5): SS (An ability to form semisolid gel is represented by an SS)

Substance: Pal-SSPHSY-miniPEG-YADAIFTNSYRKVLGQLSARKLLQDIMSR-NH2 [SEQ ID NO:236]
gel formation in aqueous solution, 6% (6% w/w): AS/IS (AS/IS for aqueous solution or insoluble)
gel formation in aqueous solution, 11%: AS/IS (AS/IS for aqueous solution or insoluble)

Physical property at 11% w/w (Table 1): AS/IS
Substance: KTTKS-NH2 [SEQ ID NO:43, reference compound]

Substance: VKVKVKVKV(D-Pro)PTKVKVKVKV-miniPEG-RPKPQQFFGLM-NH2 [SEQ ID NO:286]
gel formation in aqueous solution, 6% (6% w/w): AS/IS (AS/IS for aqueous solution or insoluble)
gel formation in aqueous solution, 11%: AS/IS (AS/IS for aqueous solution or insoluble)
